One assay relates to COS Cell. The assay can be described thus: COS Cell IC50 (Cell-Based Assay). The protocol:
(§1) FPT IC50 (inhibition of farnesyl protein transferase, in vitro enzyme assay) and COS Cell IC50 (Cell-Based Assay) were determined following the assay procedures described in WO 95/10516, published April 20, 1995. GGPT IC50 (inhibition of geranylgeranyl protein transferase, in vitro enzyme assay), Cell Mat Assay, and anti-tumor activity (in vivo anti-tumor studies) could be determined by the assay procedures described in WO 95/10516. The disclosure of WO 95/10516 is incorporated herein by reference thereto.

The next assay relates to Human tumor cells. The assay can be described thus: Soft Agar Assay (anchorage-independent growth). The format is cell-based. As to the method: Anchorage-independent growth is a characteristic of tumorigenic cell lines. Human tumor cells are suspended in growth medium containing 0.3% agarose and an indicated concentration of a farnesyl transferase inhibitor. The solution is overlayed onto growth medium solidified with 0.6% agarose containing the same concentration of farnesyl transferase inhibitor as the top layer. After the top layer is solidified, plates are incubated for 10-16 days at 37°C under 5% CO2 to allow colony outgrowth. After incubation, the colonies are stained by overlaying the agar with a solution of MTT (3-[4,5-dimethyl-thiazol-2-yl]-2,5-diphenyltetrazolium bromide, Thiazolyl blue) (1 mg/mL in PBS). Colonies can be counted and the IC50's can be determined.

The target of assay [1] is T1, farnesyl protein transferase (Homo sapiens, UniProt P49354+P49356). In words: FPT IC50 (H-ras), inhibition of farnesyl protein transferase, in vitro enzyme assay. Format: biochemical. As to the method: as §1
T1 sequence (P49356 whole entry, one chain of several): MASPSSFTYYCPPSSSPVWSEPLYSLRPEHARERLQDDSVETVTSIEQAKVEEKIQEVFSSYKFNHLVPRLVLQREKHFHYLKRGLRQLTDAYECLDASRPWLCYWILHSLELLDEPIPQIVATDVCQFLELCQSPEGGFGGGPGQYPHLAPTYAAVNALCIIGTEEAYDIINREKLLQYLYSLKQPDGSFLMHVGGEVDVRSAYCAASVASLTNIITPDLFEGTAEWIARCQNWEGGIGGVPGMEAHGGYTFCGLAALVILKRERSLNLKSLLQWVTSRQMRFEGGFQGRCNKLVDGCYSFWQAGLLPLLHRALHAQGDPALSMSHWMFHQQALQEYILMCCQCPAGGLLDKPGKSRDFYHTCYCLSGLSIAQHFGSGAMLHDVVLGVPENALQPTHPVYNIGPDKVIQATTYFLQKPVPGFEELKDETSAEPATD
Assay [2] deals with T1, farnesyl protein transferase. In words: FPT IC50 (K-ras), inhibition of farnesyl protein transferase, in vitro enzyme assay. The format is biochemical. As to the method:
as §1

One may read the IC50 as the point on the concentration scale where inhibition reaches its midpoint. A higher IC50 goes with weaker potency in that assay. As for `CCCS(=O)(=O)N1CCC(CC(=O)N2CCC([C@H]3c4ncc(Br)cc4CCc4cc(Cl)cc(Br)c43)CC2)CC1` [Example 7], the IC50 stood at 30 nM in the assay on COS Cell and 250 nM with Human tumor cells. In turn, `CS(=O)(=O)N1CCC(CC(=O)N2CCN(C3c4ccc(Cl)cc4CCc4cc(Br)cnc43)CC2)CC1` (stereo not shown) [Example 15] registered an IC50 in assay [1] of 54 nM.

As for `O=C(CC1CCN(S(=O)(=O)c2ccccc2)CC1)N1CCC([C@H]2c3ncc(Br)cc3CCc3cc(Cl)cc(Br)c32)CC1` [Example 1], the IC50 in assay [1] turned out to be 72 nM. Turning to `CN(C)S(=O)(=O)N1CCC(CC(=O)N2CCC([C@H]3c4ncc(Br)cc4CCc4cc(Cl)cc(Br)c43)CC2)CC1` [Example 3], the IC50 came out at 7.3 nM in assay [1], 9 nM with COS Cell, 10 nM in assay [2] and 100 nM in the assay on Human tumor cells.

For `O=C(CC1CCN(S(=O)(=O)c2ccc(-c3ccccn3)s2)CC1)N1CCC([C@H]2c3ncc(Br)cc3CCc3cc(Cl)cc(Br)c32)CC1` [Example 12], the inhibition at […] in assay [1] (@73 nM, read-out: FPT inhibition (H-ras) at a single concentration) is 34%.

`O=C(CC1CCN(S(=O)(=O)c2cccs2)CC1)N1CCC([C@H]2c3ncc(Br)cc3CCc3cc(Cl)cc(Br)c32)CC1` [Example 13]: it took 20 nM to reach half-maximal inhibition in assay [1] (IC50). The molecule `NS(=O)(=O)N1CCC(CC(=O)N2CCN(C3c4ccc(Cl)cc4CCc4cc(Br)cnc43)CC2)CC1` (stereo not shown) [Example 16] came in with an IC50 in assay [1] of 80 nM.

In the assay on Human tumor cells, `CS(=O)(=O)N1CCC(CC(=O)N2CCC([C@H]3c4ncc(Br)cc4CCc4cc(Cl)cc(Br)c43)CC2)CC1` [Example 2] had an IC50 of 50 nM. Consider `Cn1cnc(S(=O)(=O)N2CCC(CC(=O)N3CCC([C@H]4c5ncc(Br)cc5CCc5cc(Cl)cc(Br)c54)CC3)CC2)c1` [Example 14], for which the IC50 in assay [1] is 5.7 nM; in assay [2] it was 23 nM. The molecule `O=C(CC1CCN(S(=O)(=O)Cc2ccccc2)CC1)N1CCC([C@H]2c3ncc(Br)cc3CCc3cc(Cl)cc(Br)c32)CC1` [Example 9] returned an IC50 in the assay with COS Cell of 350 nM. In assay [1], `CC1(C)C2CCC1(CS(=O)(=O)N1CCC(CC(=O)N3CCC([C@H]4c5ncc(Br)cc5CCc5cc(Cl)cc(Br)c54)CC3)CC1)C(=O)C2` (stereo partly shown) [Example 11] registered an IC50 of 34.8 nM.

Source of the values: EP0927179B1, “SUBSTITUTED BENZOCYCLOHEPTAPYRIDINE DERIVATIVES USEFUL FOR INHIBITION OF FARNESYL PROTEIN TRANSFERASE” (SCHERING CORPORATION, priority 1996, dated 1998).
